Laboratory results reported in patent US20080255206A1, “Rxr Agonists and Antagonists, Alone or in Combination with Ppar Ligands, in the Treatment of Metabolic and Cardiovascular Diseases” (priority 2005, published 2008).

Assays:
[1] = tested on: healthy, non-inflamed human skin; test: Topical application on healthy human skin, clinical pilot trial; type: in vivo; design: key to Skin inflammation score (scale 0-4): 0: no signs or symptoms of skin inflammation; 1: slight erythema, desquamation and pruritus; 2: moderate erythema, desquamation and pruritus; 3: marked erythema, desquamation, pruritus/burning; 4: severe erythema, desquamation, pruritus, burning or even pain, edema, exsudation, ulceration; conditions: for Skin inflammation score (scale 0-4): day 17; for Irritation or inflammation of the skin: human volunteer, 1% concentration daily to the skin for 2 weeks
Description: In a clinical pilot trial on one healthy volunteer compound 15 is applied epicutaneously in a concentration of 1% for its inflammation potential compared to that of the strong inflammation inducing agent 9-cis RA in concentrations of 0.1%, 0.3% and 1%.
The compounds are solved or suspended in ethanol/propylene glycol (1:1). They are applied epicutaneously twice daily, 7 days a week, for two concecutive weeks. The site of application is an area of 3×3=9 cm^2 on the abdominal skin. The volume is 0.1 ml per application.
The following signs and symptoms of skin inflammation are recorded: Erythema, desquamation (scaling), pruritus, burning, pain, exsudation, edema, ulceration. They are classified on a scale of: • 0=no signs or symptoms of skin inflammation • 1=slight erythema, desquamation and pruritus • 2=moderate erythema, desquamation and pruritus • 3=marked erythema, desquamation, pruritus/burning • 4=severe erythema, desquamation, pruritus, burning or even pain, edema, exsudation, ulceration
Treatment period lasts from day 1 to 14, the post-treatment observation period from day 15 to day 28.

[2] = tested on: myeloperoxidase (MPO) activity; test: Acute inflammation of mouse ears, MPO activity; type: in vivo, C57BL/6 mice; conditions: 4 d
Experimental: […] mice of the C57BL/6 strain are used. Inflammation is induced on mouse ears with either AtRA, 9-cis RA or TPA by topical application. Inflammation is measured objectively by determination of the activity of myeloperoxidase (MPO) being directly correlated to the infiltration of polymorphonuclear white blood cells and by the determination of mRNA expression of c-jun, a protein implicated in the AP-1 transduction pathway according to known methods, see e.g. P. L. Stanley et al., Skin Pharmacol. 4, 262-271 (1991) (MPO assay), N. Basset-Sequin et al., J. Invest. Dermatol. 94, 418-422 (1990), F. J. Rauscher et al., Cell 52, 471-480 […], P. Sassone-Corn et al., Nature 326, 507-510 (1987), and M. Pfahl, Endocr. Rev. 14, 651-658, 1993, which are incorporated by reference regarding the experimental method.
In the “acute inflammation” test, mice are treated topically (epicutaneously), orally or intraperitoneally, daily for 4 days. In the “semi chronic inflammation” test, mice are treated topically according to the schedules given below. For each experiment, a group of at least 4 mice of both sexes are used in the defined condition, regarding placebo, vehicle control, compound, topical formulation, oral formulation, dosage and concentration. The topical vehicle consists of ethanol/PEG 400/water (3:1:1).
The anti-inflammatory effect of topical RXR antagonist compound 15 is tested by determination of myeloperoxidase activity in % of vehicle treated controls. For induction of inflammation 9-cis RA or TPA are applied topically to the skin, daily for 4 days. The RXR antagonist compound 15 (see Table 1) is administered topically one hour after the application of the inflammation inducing agent. The mice are sacrified 24 hours after the last treatment.

RARα = molecular target: T1, RARα (Homo sapiens, UniProt P10276); test: Retinoid activation assay, RARα (COS-1 cells, SeAP reporter); type: cell-based; conditions: read-out: Activation EC50 RAR α
T1 sequence (P10276 183-417 limits assumed): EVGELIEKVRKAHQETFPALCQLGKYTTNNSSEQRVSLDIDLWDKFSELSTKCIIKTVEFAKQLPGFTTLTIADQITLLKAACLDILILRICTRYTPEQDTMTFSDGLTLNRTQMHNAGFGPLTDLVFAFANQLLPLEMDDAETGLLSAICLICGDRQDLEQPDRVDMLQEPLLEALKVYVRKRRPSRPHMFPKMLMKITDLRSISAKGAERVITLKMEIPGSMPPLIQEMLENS
Experimental: Chimeric RAR cDNAs are used for transfection which contain the DNA binding region of the estrogen receptor. As reporter system, the SeAp (secreted alkaline phosphatase) gene under control of the vitellogenin estrogen response element fused to the herpes simplex thymidinkinase promoter (vit-TK-SeAP) is used. The galactosidase expression vector pCH110 serves to correct for variation in transfection efficiency. […] At the end of the incubation, the cell supernatants are assayed for SeAP activity. Results are given as EC50 (nM), the concentration leading to half-maximal activation.

RXRβ = molecular target: T2, RXRβ (Homo sapiens, UniProt P28702); test: Retinoid activation assay, RXRβ (Schneider SL-3 cells, luciferase reporter); type: cell-based; conditions: read-out: Activation EC50 RXR β
T2 construct: Full length RXR cDNA is used for transfection; expressed in transfected cells; host or cells: Schneider SL-3 cells (Drosophila)
T2 sequence (P28702 1-533): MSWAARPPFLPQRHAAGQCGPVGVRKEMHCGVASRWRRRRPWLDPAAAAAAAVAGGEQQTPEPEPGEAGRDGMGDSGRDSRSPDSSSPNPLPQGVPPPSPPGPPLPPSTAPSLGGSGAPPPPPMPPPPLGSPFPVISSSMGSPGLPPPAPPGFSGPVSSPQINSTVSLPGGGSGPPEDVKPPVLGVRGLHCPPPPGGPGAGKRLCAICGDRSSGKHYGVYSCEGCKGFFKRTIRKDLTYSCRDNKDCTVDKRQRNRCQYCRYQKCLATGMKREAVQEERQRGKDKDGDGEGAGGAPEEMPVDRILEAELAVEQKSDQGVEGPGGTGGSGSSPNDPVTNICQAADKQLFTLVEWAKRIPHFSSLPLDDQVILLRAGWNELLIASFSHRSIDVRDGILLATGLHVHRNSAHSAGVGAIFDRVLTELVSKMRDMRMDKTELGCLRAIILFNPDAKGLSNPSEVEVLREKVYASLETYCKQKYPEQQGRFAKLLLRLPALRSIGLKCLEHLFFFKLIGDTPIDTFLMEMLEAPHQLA
Experimental: Full length RXR cDNA is used for transfection. As reporter system, the luciferase gene is used in a construct with three copies of a RXR response element from rat CRBP gene, (formerly RARE from betaRAR gene), fused to alcoholdehydrogenase gene promoter in the plasmid pGL2-basic. Schneider SL-3 cells from Drosophila are transiently transfected 3-4 h before the experiment by the Ca-phosphate-DNA coprecipitation method. […] At the end of the incubation, the cell supernatants are assayed for luciferase activity. Results are given as EC50 (nM), the concentration leading to half-maximal activation.

In the case of `CC1=C(/C=C/C(C)=C\C=C\C(C)=C\C(=O)O)C(C)(C)CCC1` [9-cis RA, 9-cis retinoic acid, reference compound], the “Skin inflammation score (scale 0-4)” value ([1]; 0.1% epicutaneously twice daily day 1-14) is reported as 1, the “Skin inflammation (in words)” value ([1]; 0.1% epicutaneously twice daily, days 12, 13 and 14) is reported as “moderate inflammation” and the “Skin inflammation score (scale 0-4)” value ([1]; 0.3% epicutaneously twice daily day 1-14) is reported as 2. For the same compound, the “Skin inflammation (in words)” value ([1]; 0.3% epicutaneously twice daily, days 12, 13 and 14) was “moderate inflammation”, the “Skin inflammation score (scale 0-4)” value ([1]; 1% epicutaneously twice daily day 1-14) was 3 and the “Skin inflammation (in words)” value ([1]; 1.0% epicutaneously twice daily, days 12, 13 and 14) was “marked inflammation”. The “MPO activity (% vehicle treated mice)” value ([2]; 9-cis RA 0.05% alone, topical) was 647 ± 142 % vehicle treated mice.
For `CC1=C(/C=C/C2=C(/C=C/C(C)=C/C(=O)O)CCCCC2)C(C)(C)CCC1` [Compound 1, (2E,4E)-3-methyl-5-[2-[(E)-2-(2,6,6-trimethyl-1-cyclohexen-1-yl)ethenyl]-1-cyclohepten-1-yl]-2,4-pentadienoic acid], the “Irritation or inflammation of the skin” value [1] was “does not induce any irritation or inflammation of the skin”.
`CC1=C(/C=C/c2sccc2/C=C/C(C)=C/C(=O)O)C(C)(C)CCC1` [Compound 5, (2E,4E)-3-Methyl-5-[2-[(E)-2-(2,6,6-trimethyl-1-cyclohexen-1-yl)ethenyl]-3-thienyl]-2,4-pentadienoic acid] showed an EC50 (RARα) of 170 nM and an EC50 (RXRβ) of 50 nM.
For `CC(/C=C/C1=C(c2ccc3c(c2)C(C)(C)CCC3(C)C)CCCC1)=C\C(=O)O` [Compound 6, (2E,4E)-3-Methyl-5-[2-(5,5,8,8-tetramethyl-5,6,7,8-tetrahydro-naphthalen-2-yl)-cyclohex-1-enyl]-penta-2,4-dienoic acid], the EC50 (RXRβ) was 1850 nM.
For `CC(/C=C/c1ccccc1-c1ccc2c(c1)C(C)(C)CCC2(C)C)=C\C(=O)O` [Compound 7, (2E,4E)-3-methyl-5-[2-(5,5,8,8-tetramethyl-5,6,7,8-tetrahydro-naphthalen-2-yl)-phenyl]-penta-2,4-dienoic acid], the EC50 (RXRβ) was 330 nM.
Work on `CC(/C=C/c1sccc1-c1ccc2c(c1)C(C)(C)CCC2(C)C)=C\C(=O)O` [Compound 9] yielded an EC50 (RARα) of 2300 nM.
In the case of `CC(/C=C/C1=C(c2ccc3c(c2)C(C)(C)CCC3(C)C)CCC1)=C\C(=O)O` [Compound 12, (2E,4E)-3-Methyl-5-[2-(5,5,8,8-tetramethyl-5,6,7,8-tetrahydro-naphthalen-2-yl)-cyclopent-1-enyl]-penta-2,4-dienoic acid], the EC50 (RARα) is reported as 370 nM and the EC50 (RXRβ) is reported as 60 nM.
For `C/C(=C/C=C/C(C)=C/C(=O)O)c1cc2c(cc1C)C(C)(C)CCCC2` [Compound 13, (2E,4E,6Z)-3-Methyl-7-(3,5,5,-trimethyl-6,7,8,9-tetrahydro-5H-benzocyclohepten-2-yl)-octa-2,4,6-trienoic acid], the EC50 (RXRβ) was 77 nM.
Compound `CC1=C(/C=C/C2=C(/C=C/C(C)=C/C(=O)O)CCC2)C(C)(C)CCC1` [Compound 14, (2E,4E)-3-Methyl-5-[2-[(E)-2-(2,6,6-trimethyl-1-cyclohexen-1-yl)ethenyl]-1-cyclopenten-1-yl]-2,4-pentadienoic acid] has an EC50 (RARα) of 150 nM and an EC50 (RXRβ) of 270 nM.
`CCCCOc1c(\C(C)=C/C=C/C(C)=C/C(=O)O)cc(C(C)(C)C)cc1C(C)(C)C` [Compound 15, (2E,4E,6Z)-7-[2-butoxy-3,5-bis(1,1-dimethylethyl)phenyl]-3-methyl-2,4,6-octatrienoic acid] was tested, and the “Skin inflammation (in words)” value ([1]; 1% epicutaneously twice daily day 1-14, observation to day 28) was “well tolerated with no skin inflammation”, the “Skin inflammation (in words)” value ([1]; 1% epicutaneously twice daily day 1-14, observation to day 28, listed as Compound A) was “does not induce any objective or subjective symptoms” and the “Irritation or inflammation of the skin” value [1] was “does not induce any irritation or inflammation of the skin”. The “MPO activity (% vehicle treated mice)” value ([2]; 9-cis RA 0.05% + test compound 0.05% topical) was 236 ± 92 % vehicle treated mice, the “MPO activity (% vehicle treated mice)” value ([2]; TPA 0.005% + test compound 0.05% topical) was 163 ± 25 % vehicle treated mice and the “MPO activity (% vehicle treated mice)” value ([2]; TPA 0.005% + test compound 2.5% topical) was 142 ± 18 % vehicle treated mice.
In the case of `CC1=C(C#CC2=C(/C=C/C(C)=C/C(=O)O)CCCCC2)C(C)(C)CCC1` [Compound 18], the EC50 (RXRβ) is reported as ≥ 10000 nM.
In the case of `CCC1(CC)CCC(C)(C)c2cc(\C(C)=C/C=C/C(C)=C/C(=O)O)ccc21` [Compound 24, (2E,4E,6Z)-7-(5,5-Diethyl-8,8-dimethyl-5,6,7,8-tetrahydro-naphthalen-2-yl)-3-methyl-octa-2,4,6-trienoic acid], the EC50 (RARα) is reported as 54 nM and the EC50 (RXRβ) is reported as ≥ 10000 nM.
